Data from patent US7153881B2, “Compounds acting as melanocortin receptor ligands” (Acure Pharma AB, priority 2001, dated 2006).

Columns and labels:
MC4 [1] = target: T1, MC4 (Homo sapiens, UniProt P32245); assay: Affinity for the MC4-receptors, binding assay using I125-NDP-αMSH as ligand
Description: (§1) Test 2. Affinity for the MC3-receptors, the MC4-receptors and the MC5-receptors
(§2) The binding assays were carried out essentially as described by Szardenings et al, J Biol Chem 1997; 272; 27943–27948 and Schiöth et al, FEBS Lett 1997; 410; 223–228 using I125-NDP-αMSH as ligand.

MC5-receptors = MC5-receptors (Homo sapiens, UniProt P33032); assay: Affinity for the MC5-receptors, binding assay using I125-NDP-αMSH as ligand
Description: as §1, §2

MC1 = MC1 (Homo sapiens, UniProt Q01726); assay: Stimulation of cAMP, MC1; format: cell-based; details: response given relative to α-MSH
Description: (§3) The stimulation of cAMP was carried out essentially as described by Schiöth et al, Br J Pharmacol 1998; 124; 75–82, however, the response is given relative to α-MSH.

MC3 [2] = target: T2, MC3 (Homo sapiens, UniProt P41968); assay: Stimulation of cAMP, MC3; format: cell-based; details: response given relative to α-MSH
Description: as §3

MC4 [3] = target: T1, MC4; assay: Stimulation of cAMP, MC4; format: cell-based; details: response given relative to α-MSH
Description: as §3

MC3 [4] = target: T2, MC3; assay: Affinity for the MC3-receptors, binding assay using I125-NDP-αMSH as ligand
Description: as §1, §2

T1 sequence (P32245 whole entry): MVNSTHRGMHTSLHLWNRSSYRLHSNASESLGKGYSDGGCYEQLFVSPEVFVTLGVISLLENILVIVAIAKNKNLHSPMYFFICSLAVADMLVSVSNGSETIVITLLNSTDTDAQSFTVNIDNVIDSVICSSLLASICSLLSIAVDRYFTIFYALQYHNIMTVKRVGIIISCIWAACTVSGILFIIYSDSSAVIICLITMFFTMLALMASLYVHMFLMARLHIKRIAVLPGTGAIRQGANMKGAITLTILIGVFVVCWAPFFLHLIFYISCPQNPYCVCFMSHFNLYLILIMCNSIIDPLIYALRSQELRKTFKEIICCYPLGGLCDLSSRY
T2 sequence (P41968 whole entry): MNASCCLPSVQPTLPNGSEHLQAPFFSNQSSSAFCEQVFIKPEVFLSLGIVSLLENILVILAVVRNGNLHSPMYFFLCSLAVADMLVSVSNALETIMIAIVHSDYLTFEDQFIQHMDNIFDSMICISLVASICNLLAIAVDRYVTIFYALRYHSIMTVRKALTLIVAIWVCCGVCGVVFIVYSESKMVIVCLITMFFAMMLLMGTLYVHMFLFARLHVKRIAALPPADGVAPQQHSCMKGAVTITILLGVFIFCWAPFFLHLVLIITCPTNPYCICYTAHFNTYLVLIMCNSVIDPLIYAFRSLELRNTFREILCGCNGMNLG
Chain of MC1 (Q01726 whole entry): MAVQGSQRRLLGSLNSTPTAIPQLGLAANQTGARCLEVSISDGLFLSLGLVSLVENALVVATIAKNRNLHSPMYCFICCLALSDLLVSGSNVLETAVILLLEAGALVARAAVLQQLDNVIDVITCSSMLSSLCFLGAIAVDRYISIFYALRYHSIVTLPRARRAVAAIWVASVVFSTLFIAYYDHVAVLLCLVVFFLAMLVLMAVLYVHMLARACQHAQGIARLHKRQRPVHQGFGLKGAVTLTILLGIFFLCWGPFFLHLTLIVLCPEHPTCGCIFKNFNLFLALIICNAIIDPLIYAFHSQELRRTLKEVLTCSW
Chain of MC5-receptors (P33032 whole entry): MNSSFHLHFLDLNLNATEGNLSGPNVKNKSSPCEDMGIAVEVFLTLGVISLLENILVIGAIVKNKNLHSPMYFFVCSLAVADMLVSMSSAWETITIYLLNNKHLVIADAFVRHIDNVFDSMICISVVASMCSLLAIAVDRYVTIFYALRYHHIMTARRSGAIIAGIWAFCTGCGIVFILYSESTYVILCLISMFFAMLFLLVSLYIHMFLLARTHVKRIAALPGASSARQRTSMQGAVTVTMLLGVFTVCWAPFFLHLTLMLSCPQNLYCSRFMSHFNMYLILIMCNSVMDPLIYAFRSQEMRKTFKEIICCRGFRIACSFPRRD

## N=C(NN=Cc1cccn1-c1ccc(Cl)cc1)NN=Cc1cccn1-c1ccc(Cl)cc1 [Compound 34, N,N′-Di-(1-(4-Chlorophenyl)-1H-pyrrol-2-ylmethyleneamino)guanidine]
other
  melting point: 221 to 223 °C

## CNC(=N)NN=Cc1cc([N+](=O)[O-])ccc1F [Compound 35, N-(2-Fluoro-5-nitrobenzylideneamino)-N′-methylguanidine]
other
  melting point: 217 to 219 °C

## N=C(NN=Cc1c[nH]c2ccccc12)NN=Cc1c[nH]c2ccccc12 [Compound 14, N,N′-bis[1H-indol-3-yl-methylideneamino]guanidine]
other
  melting point: 296 to 298 °C

## N=C(NCCc1ccccc1)NN=Cc1ccc([N+](=O)[O-])cc1 [Compound 20, N-(4-nitrobenzylideneamino)-N′-(2-phenylethyl)guanidine]
other
  melting point: 241 to 243 °C

## COc1ccc(C=NNC(=N)NN=Cc2ccc(OC)c(OC)c2Cl)c(Cl)c1OC [Compound 32, N,N′-Di-(2-Chloro-3,4-Dimethoxybenzylideneamino)guanidine]
other
  melting point: 228 to 230 °C

## N=C(NN=Cc1ccccc1Br)Nc1ccccc1 [Compound 28, N-(2-Bromobenzylideneamino)-N′-phenylguanidine]
other
  melting point: 149 to 152 °C

## N=C(NN=Cc1cc([N+](=O)[O-])ccc1F)Nc1ccccc1 [Compound 17, N-(2-fluoro-5-nitrobenzylideneamino)-N′-phenylguanidine]
other
  melting point: 191 to 193 °C

## N=C(NCCc1ccccc1)NN=Cc1c[nH]c2ccccc12 [Compound 12, N-(1H-indol-3-ylmethylideneamino)-N′-(2-phenylethyl)guanidine]
other
  melting point: 207 to 209 °C

## COc1ccc(C=NNC(=N)NCc2ccccc2)c(Cl)c1OC [Compound 1, N-(2-chloro-3,4-dimethoxybenzylideneamino)-N′-benzylguanidine]
other
  melting point: 215 to 217 °C

## COc1ccc(C=NNC(=N)Nc2ccccc2)c(Cl)c1OC [Compound 16, N-(2-chloro-3,4-dimethoxybenzylideneamino)-N′-phenylguanidine]
other
  melting point: 179 to 181 °C

## N=C(NCCc1ccccc1)NN=Cc1ccc2ccccc2c1 [Compound 21, N-(naphthalen-2-yl-methylideneamino)-N′-(2-phenylethyl)guanidine]
other
  melting point: 244 to 246 °C

## N=C(NN=Cc1ccc([N+](=O)[O-])cc1[N+](=O)[O-])Nc1ccccc1
other
  melting point: 180 to 190 °C

## N=C(NCc1ccccc1)NN=Cc1cccn1-c1ccc(Cl)cc1 [Compound 29, N-[1-(4-Chlorophenyl) 1H-pyrrol-2-ylmethyleneamino]-N′-benzylguanidine]
MC4 [1]
  Ki: 0.61 µM
MC5-receptors
  Ki: 1.32 µM
MC1
  cAMP agonist/plateau stim. α-MSH (%) MC1: 10%
MC3 [2]
  cAMP agonist/plateau stim. α-MSH (%) MC3: 3%
MC4 [3]
  cAMP agonist/plateau stim. α-MSH (%) MC4: 111%
other
  melting point: 190 to 192 °C

## N=C(NCc1ccccc1)NN=Cc1ccc(O)cc1 [Compound 18, N-(4-hydroxybenzylideneamino)-N′-benzylguanidine]
other
  melting point: 192 to 194 °C

## COc1ccc(C=NNC(=N)NCCc2ccccc2)cc1 [Compound 10, N-(4-methoxybenzylideneamino)-N′-(2-phenylethyl)guanidine]
other
  melting point: 126 to 128 °C

## N=C(NN=Cc1cccc2ccccc12)NN=Cc1cccc2ccccc12 [Compound 30, N,N′-Di-(naphthalen-1-ylmethyleneamino)guanidine]
other
  melting point: 253 to 255 °C

## N=C(N)N(Cc1cccc2ccccc12)N=Cc1c[nH]c2ccccc12 [Compound 13, N-(1H-indol-3-yl-methylideneamino)-N-(naphthalen-1-ylmethyl)guanidine]
other
  melting point: 213 to 215 °C

## N=C(NN=Cc1ccc2ccccc2c1)Nc1ccc2ccccc2c1 [Compound 23, N-(naphthalen-2-yl-methylideneamino)-N′-naphthalen-2-ylguanidine]
other
  melting point: 218 to 220 °C

## COc1ccc(C=NNC(=Nc2ccccc2)NO)c(Cl)c1OC [Compound 2, N-(2-chloro-3,4-dimethoxybenzylideneamino)-N′-hydroxy-N″-phenylguanidine]
other
  melting point: 167 to 169 °C

## N=C(NCCc1ccccc1)NN=CC=Cc1ccccc1 [Compound 33]
MC3 [4]
  Ki: 5.36 µM
MC4 [1]
  Ki: 3.59 µM
MC5-receptors
  Ki: 8.23 µM
MC1
  cAMP agonist/plateau stim. α-MSH (%) MC1: 8%
MC3 [2]
  cAMP agonist/plateau stim. α-MSH (%) MC3: 4%
MC4 [3]
  cAMP agonist/plateau stim. α-MSH (%) MC4: 161%
other
  melting point: 175 to 177 °C

## CNC(=N)NN=Cc1ccc(OC)c(OC)c1Cl [Compound 37, N-(2-Chloro-3,4-dimethoxybenzylideneamino)-N′-methylguanidine]
other
  melting point: 207 to 210 °C

## N=C(NCCc1ccccc1)NN=Cc1ccccc1Br [Compound 27, N-(2-Bromobenzylideneamino)-N′-phenethylguanidine]
MC3 [4]
  Ki: 7.96 µM
MC4 [1]
  Ki: 1.35 µM
MC5-receptors
  Ki: 5.8 µM
MC1
  cAMP agonist/plateau stim. α-MSH (%) MC1: 12%
MC3 [2]
  cAMP agonist/plateau stim. α-MSH (%) MC3: 9%
MC4 [3]
  cAMP agonist/plateau stim. α-MSH (%) MC4: 97%
other
  melting point: 154 to 155 °C

## N=C(NCc1ccccc1)NN=Cc1ccc([N+](=O)[O-])cc1 [Compound 24, N-(4-Nitrobenzylideneamino)-N′-benzylguanidine]
other
  melting point: 239 to 241 °C

## N=C(NCc1cccc2ccccc12)NN=Cc1ccncc1 [Compound 11, N-(pyrid-4-yl-methylideneamino)-N′-(naphthalen-1-yl-methyl)guanidine]
other
  melting point: 260 to 262 °C
